Measured values from patent US6201116A, “Halide indicators” (The Regents of the University of California, priority 1999, dated 2001).

Columns and labels:
[1] = Fluorescence lifetime in water; format: physicochemical
Procedure: (§1) Time resolved fluorescence measurements. Fluorescence lifetime and anisotropy decay measurements were carried out in the frequency domain by cuvette fluorimetry using a Fourier transform fluorimeter (48000 MHF, SLM Instruments, Urbana, Ill.) or by fluorescence microscopy using epifluorescence microscope optics in place of the cuvette compartment (Verkman et al., 1991). For microscopy measurements, impulse-modulated vertically polarized light (442 nm, He--Cd laser 35 mwatts) was reflected onto the sample by a 510 nm dichroic mirror and objective lens; emitted fluorescence was filtered by a 515 nm barrier filter and passed through a rotatable analyzing calcite polarizer. In some experiments, a biconcave lens was introduced just in front of the dichroic mirror to diverge beam diameter in the focal plane to ~40 mm.
(§2) Analysis of lifetime and time-resolved anisotropy was performed by a comparative approach. Generally six pairs of measurements (each acquisition 8 s) were obtained, comparing sample and reference (fluorescein in 0.1 N NaOH, lifetime 4.0 ns) for measurement of lifetime, and parallel and perpendicular orientations of the emission polarizer for measurement of anisotropy decay. […] Median phase and modulation values for paired data were analyzed by nonlinear least-squares for determination of lifetimes and rotational correlation times.

[2] = Time-resolved anisotropy in water; format: physicochemical; details: single-component, n=3
Procedure: as §1, §2

CFTR = test: I^-/NO3^- exchange in forskolin-stimulated CFTR-expressing cells; format: cell-based
Procedure: Transport measurements. Cells were labeled with LZQ or SPQ by hypotonic shock (loading buffer/water 1:1 containing 2 mM LZQ or 7.5 mM SPQ) for 5 min at room temperature or by overnight incubation with indicators in the cell culture medium. Extracellular indicator was removed by washing just prior to measurements. For fluorescence microscopy, glass coverslips were then mounted in a perfusion chamber (flow ~2 ml/min) in which solutions were exchanged using a 4-way valve. For microplate reader measurements, cells in 96-well plates were bathed in […] of the `1st buffer` (see Table 3) and […] of the Cl^- -containing, I^- -free solution was injected into the well to drive Cl^- /I^- exchange (protocol 1). For stimulation of CFTR using protocol 2, […] of a 1:8 mixture of the 1st buffer and the 2nd buffer containing […] forskolin, 2 mM CPT-cAMP and […] IBMX was added.
For determination of the absolute I^- transport rates, the time course of intracellular [I^- ] was computed from the time course of SPQ or LZQ fluorescence using the modified Stem-Volmer equation [I^- ]={([Fo -Fb ]/[F-Fb ])-1}/KI, where Fo is fluorescence intensity in the absence of I^-, Fb is background fluorescence of unlabeled cells, and KI the intracellular quenching constant for I^- (see Results). I^- transport rates were calculated from the slope of a linear regression of the first 10 time points after changing perfusate composition.
The utility of LZQ for functional measurement of CFTR expression was tested. […] A comparison of data obtained for cells loaded with LZQ and SPQ initially loaded with I^-, followed by replacement of I^- with NO3^- in the absence of forskolin, followed by addition of forskolin was also performed. The initial rates of forskolin-stimulated I^- efflux (SPQ: 0.09±0.02 mM/s; LZQ: 0.08±0.01 mM/s) were similar. Measurements of Cl^- /NO3^- exchange were also carried out by measuring SPQ fluorescence using cells labeled with SPQ alone vs. cells colabeled with SPQ and LZQ.

cells [3] = test: Chemical stability in cells (thin layer chromatography of lysates); format: cell-based; details: TLC of lysates from loaded cells
Procedure: LZQ and LMQ were loaded into cells efficiently by hypotonic shock or passive incubation. […] As was found for SPQ, LZQ and LMQ were non-toxic to cells in assays of cell growth (2 mM in culture medium for 72 h).

cells [4] = test: Fluorescence lifetime in cells (frequency-domain microfluorimetry); format: cell-based
Procedure: as §1, with “In some experiments, a biconcave lens was introduced just in front of the dichroic mirror to diverge beam diameter in the focal plane to ~40 mm.” left out
Analysis of lifetime and time-resolved anisotropy was performed by a comparative approach. […] Median phase and modulation values for paired data were analyzed by nonlinear least-squares for determination of lifetimes and rotational correlation times.
A calibration study was done to determine the intracellular sensitivity of LZQ to I^-. […] LZQ fluorescence changed reversibly in response to changes in solution I^-. […] Fluorescence lifetime analysis was done to determine whether LZQ fluorescence is quenched in cells by substances other than I^-. Nanosecond lifetimes were measured by frequency-domain microfluorimetry. […]

cells [5] = test: Time-resolved anisotropy in cells; format: cell-based
Procedure: as §1
Analysis of lifetime and time-resolved anisotropy was performed by a comparative approach. Generally six pairs of measurements (each acquisition 8 s) were obtained, comparing sample and reference (fluorescein in 0.1 N NaOH, lifetime 4.0 ns) for measurement of lifetime, and parallel and perpendicular orientations of the emission polarizer for measurement of anisotropy decay. The phase-modulation data consisted of phase angles and modulation ratios at 40 discrete, equally spaced modulation frequencies (5-200 MHz). The analyzing polarizer was positioned at the magic angle for lifetime measurements. Additional details of the data acquisition and analysis routines were described previously (Verkman et al., 1991). Median phase and modulation values for paired data were analyzed by nonlinear least-squares for determination of lifetimes and rotational correlation times.
Time-resolved anisotropy was measured to quantify intracellular LZQ binding. In water, LZQ rotated freely with a single-component rotational correlation time of 121±3 ps (n=3). For LZQ in cells, a plot of differential phase and modulation amplitude ratio indicated a two-component anisotropy decay model with a major component (fractional amplitude 0.90-0.94) of 144±10 ps, similar to that in water.

[6] = In vitro fluorescence quenching by other ions (Stern-Volmer); format: physicochemical
Procedure: Computations. In vitro fluorescence quenching studies were carried out at peak excitation and emission wavelengths. Microliter aliquots of the sodium salt of the quenching anion (1 M) were added to indicator solution in 5 mM sodium phosphate (pH 7.2, unless indicated otherwise). Fluorescence intensities in the absence (Fo) and presence (F) of quencher anion ([Q]) were measured to give the Stem-Volmer constant (Kq) as defined by: Fo /F=1+Kq [Q].

fluorescence lifetime ([1]; in water, absence of I^-): 7.1 ns | quenching mechanism (lifetime decrease with [I^-]) ([1]; increasing [I^-]): collisional mechanism | rotational correlation time [2]: 121±3 ps | chemical stability in cells (cells [3]): remained chemically stable in cells | fluorescence lifetime in cells (cells [4]; in the absence of I^-, n=4): 6.5±0.3 ns | fractional amplitude of major component (cells [5]; in cells): 0.90-0.94 | rotational correlation time, major component (cells [5]; in cells, two-component model): 144±10 ps
SMILES: [O-]c1nc2c(N[C@@H]3O[C@H](CO)[C@@H](O)[C@H]3O)ncnc2[n+]2ccccc12 [I, 4-(β-D-ribofuranosylamino)-pyrido [2,1-h] pteridin-11-ium-5-olate]
initial rate of forskolin-stimulated I^- efflux (CFTR; I^- replaced by NO3^- without forskolin, then forskolin added): 0.08 ± 0.01 mM/s | computed I^- efflux rate (CFTR; forskolin-stimulated CFTR-expressing cells, I^-/NO3^- exchange): 0.09 ± 0.03 mM/s | computed I^- influx rate (CFTR; forskolin-stimulated CFTR-expressing cells, I^-/NO3^- exchange, S.E., n=3): 0.25 ± 0.01 mM/s | quenching by intracellular components (cells [4]): quenched little by intracellular components | binding to intracellular components (cells [5]): negligible binding | Stern-Volmer constant, K^+ ([6]; K^+): < 1 M⁻¹ | Stern-Volmer constant, NO3^- ([6]; NO3^-): < 1 M⁻¹ | Stern-Volmer constant, Na^+ ([6]; Na^+): < 1 M⁻¹ | Stern-Volmer constant, acetate ([6]; acetate): < 1 M⁻¹ | Stern-Volmer constant, phosphate ([6]; phosphate): < 1 M⁻¹
